Measured values from the CheMixHub viscosity set.
Where “and” joins values, the source holds several entries; their conditions need not be identical. Identical values can stand only once. ± gives the uncertainty stated by the source.

Test: xn = mol fraction of the nth substance listed

C[N+](C)(C)CCO.[Cl-] + OCCO
viscosity (308.15 K, 101.3 kPa, x2 = 0.8332): 16.22 ± 0.67 mPa·s
viscosity (308.15 K, 101.3 kPa, x2 = 0.8571): 14.52 ± 0.6 mPa·s
viscosity (308.2 K, 101.3 kPa, x1 = 0.1247): 15.3 ± 0.6 mPa·s
viscosity (308.2 K, 101.3 kPa, x1 = 0.1675): 17.4 ± 0.7 mPa·s
viscosity (308.2 K, 101.3 kPa, x1 = 0.2): 18.6 ± 0.8 mPa·s
viscosity (308.2 K, 101.3 kPa, x1 = 0.2513): 20.7 ± 0.8 mPa·s
viscosity (313 K, 100 kPa, x1 = 0.333): 26 ± 2.1 mPa·s
viscosity (313 K, 101 kPa, x1 = 0.333): 23 ± 2 mPa·s
viscosity (313 K, 101 kPa, x1 = 0.3333): 40.7 ± 0.9 mPa·s
viscosity (313.15 K, 100 kPa, x1 = 0.333): 19.32 ± 0.26 mPa·s and 41.27 ± 1.7 mPa·s
viscosity (313.15 K, 100 kPa, x1 = 0.34): 27.44 ± 1.1 mPa·s
viscosity (313.15 K, 101 kPa, x1 = 0.333): 26.3 ± 2.1 mPa·s
viscosity (313.15 K, 101 kPa, x1 = 0.3333): 25.8 ± 0.8 mPa·s
viscosity (313.15 K, 101 kPa, x2 = 0.7): 25.84 ± 0.53 mPa·s
viscosity (313.15 K, 101.3 kPa, x2 = 0.6675): 27.77 ± 1.2 mPa·s
viscosity (313.15 K, 101.3 kPa, x2 = 0.7): 24.22 ± 0.27 mPa·s
viscosity (313.15 K, 101.3 kPa, x2 = 0.7499): 18.27 ± 0.77 mPa·s
viscosity (313.15 K, 101.3 kPa, x2 = 0.7999): 15.52 ± 0.64 mPa·s
viscosity (313.15 K, 101.3 kPa, x2 = 0.8332): 13.72 ± 0.57 mPa·s
viscosity (313.15 K, 101.3 kPa, x2 = 0.8571): 12.3 ± 0.51 mPa·s
viscosity (318 K, 100 kPa, x1 = 0.333): 21.6 ± 1.7 mPa·s
viscosity (318 K, 101 kPa, x1 = 0.3333): 36.4 ± 0.8 mPa·s
viscosity (318.15 K, 100 kPa, x1 = 0.333): 16.57 ± 0.22 mPa·s
viscosity (318.15 K, 100 kPa, x1 = 0.34): 23.03 ± 0.93 mPa·s
viscosity (318.15 K, 101 kPa, x1 = 0.2): 10.5 ± 0.4 mPa·s
viscosity (318.15 K, 101 kPa, x1 = 0.333): 15.6 ± 0.7 mPa·s
viscosity (318.15 K, 101 kPa, x1 = 0.3333): 21.9 ± 0.7 mPa·s
viscosity (318.15 K, 101.3 kPa, x2 = 0.6675): 23.61 ± 0.98 mPa·s
viscosity (318.15 K, 101.3 kPa, x2 = 0.7): 20.47 ± 0.23 mPa·s
viscosity (318.15 K, 101.3 kPa, x2 = 0.7499): 15.68 ± 0.66 mPa·s
viscosity (318.15 K, 101.3 kPa, x2 = 0.7999): 13.3 ± 0.55 mPa·s
viscosity (318.15 K, 101.3 kPa, x2 = 0.8332): 11.67 ± 0.48 mPa·s
viscosity (318.15 K, 101.3 kPa, x2 = 0.8571): 10.51 ± 0.44 mPa·s
viscosity (318.2 K, 101.3 kPa, x1 = 0.1247): 11.4 ± 0.5 mPa·s
viscosity (318.2 K, 101.3 kPa, x1 = 0.1675): 13.1 ± 0.5 mPa·s
viscosity (318.2 K, 101.3 kPa, x1 = 0.2): 14.2 ± 0.6 mPa·s
viscosity (318.2 K, 101.3 kPa, x1 = 0.2513): 16.3 ± 0.7 mPa·s
viscosity (323 K, 100 kPa, x1 = 0.333): 18.8 ± 1.5 mPa·s
viscosity (323 K, 101 kPa, x1 = 0.333): 16 ± 1 mPa·s
viscosity (323 K, 101 kPa, x1 = 0.3333): 32.8 ± 0.7 mPa·s
viscosity (323.15 K, 100 kPa, x1 = 0.333): 14.33 ± 0.19 mPa·s and 33.33 ± 1.4 mPa·s
viscosity (323.15 K, 101 kPa, x1 = 0.333): 21.2 ± 1.7 mPa·s
viscosity (323.15 K, 101 kPa, x1 = 0.3333): 18.8 ± 0.6 mPa·s
viscosity (323.15 K, 101.3 kPa, x2 = 0.6675): 20.3 ± 0.84 mPa·s
viscosity (323.15 K, 101.3 kPa, x2 = 0.7): 17.41 ± 0.2 mPa·s
viscosity (323.15 K, 101.3 kPa, x2 = 0.7499): 13.57 ± 0.57 mPa·s
viscosity (323.15 K, 101.3 kPa, x2 = 0.7999): 11.5 ± 0.48 mPa·s
viscosity (323.15 K, 101.3 kPa, x2 = 0.8332): 9.98 ± 0.41 mPa·s
viscosity (323.15 K, 101.3 kPa, x2 = 0.8571): 9.07 ± 0.38 mPa·s
